Measurements from ChEMBL document CHEMBL4390652, “Design, biological evaluation and X-ray crystallography of nanomolar multifunctional ligands targeting simultaneously acetylcholinesterase and glycogen synthase kinase-3” (Eur J Med Chem, 2019).

Key:
[1] = target: Ephrin type-A receptor 2 (Homo sapiens) (UniProt P29317); test: Binding affinity to wild-type human partial length EPHA2 (T593 to V891 residues) expressed in bacterial expression system assessed as residual binding level at 10 uM by Kinomescan method relative to control
[2] = target: Aurora kinase A (Homo sapiens) (UniProt O14965); test: Binding affinity to wild-type human partial length AURKA (E122 to K401 residues) expressed in mammalian expression system assessed as residual binding level at 10 uM by Kinomescan method relative to control
Caco-2 = test: Cytotoxicity against human Caco2 cells assessed as growth inhibition incubated for 48 hrs by Hoechst 33342 staining based assay; format: cell-based; details: Caco-2, 48 h
[3] = target: Homeodomain-interacting protein kinase 1 (Homo sapiens) (UniProt Q86Z02); test: Binding affinity to wild-type human partial length HIPK1 (M146 to I555 residues) expressed in mammalian expression system assessed as residual binding level at 10 uM by Kinomescan method relative to control
[4] = target: Casein kinase I isoform delta (Homo sapiens) (UniProt P48730); test: Binding affinity to wild-type human full length CSNK1D (M1 to K409 residues) expressed in bacterial expression system assessed as residual binding level at 10 uM by Kinomescan method relative to control
[5] = target: Mitogen-activated protein kinase kinase kinase 9 (Homo sapiens) (UniProt P80192); test: Binding affinity to wild-type human partial length MLK1 (V88 to W426 residues) expressed in bacterial expression system assessed as residual binding level at 10 uM by Kinomescan method relative to control
[6] = target: TGF-beta receptor type-1 (Homo sapiens) (UniProt P36897); test: Binding affinity to wild-type human partial length TGFBR1 (D179 to M503 residues) expressed in bacterial expression system assessed as residual binding level at 10 uM by Kinomescan method relative to control
[7] = target: Serine/threonine-protein kinase Chk2 (Homo sapiens) (UniProt O96017); test: Binding affinity to wild-type human partial length CHEK2 (S253 to E574 residues) expressed in bacterial expression system assessed as residual binding level at 10 uM by Kinomescan method relative to control
[8] = target: Macrophage colony-stimulating factor 1 receptor (Homo sapiens) (UniProt P07333); test: Binding affinity to wild-type human partial length autoinhibited CSF1R (Y538 to S939 residues) expressed in mammalian expression system assessed as residual binding level at 10 uM by Kinomescan method relative to control
[9] = tested on: Phosphatidylinositol 4,5-bisphosphate 3-kinase catalytic subunit alpha isoform (Homo sapiens), P42336 [H1047Y]; test: Binding affinity to human partial length PIK3CA H1047Y mutant (R108 to N1068 residues) expressed in mammalian expression system assessed as residual binding level at 10 uM by Kinomescan method relative to control
[10] = target: Ankyrin repeat and protein kinase domain-containing protein 1 (Homo sapiens) (UniProt Q8NFD2); test: Binding affinity to wild-type human partial length ANKK1 (M1 to A305 residues) expressed in mammalian expression system assessed as residual binding level at 10 uM by Kinomescan method relative to control
[11] = target: Leukocyte tyrosine kinase receptor (Homo sapiens) (UniProt P29376); test: Binding affinity to wild-type human partial length LTK (P422 to S744 residues) expressed in bacterial expression system assessed as residual binding level at 10 uM by Kinomescan method relative to control
[12] = tested on: Epidermal growth factor receptor (Homo sapiens), P00533 [L861Q]; test: Binding affinity to human partial length EGFR L861Q mutant (R669 to V1011 residues) expressed in bacterial expression system assessed as residual binding level at 10 uM by Kinomescan method relative to control
[13] = target: Serine/threonine-protein kinase Nek1 (Homo sapiens) (UniProt Q96PY6); test: Binding affinity to wild-type human partial length NEK1 (M1 to K278 residues) expressed in bacterial expression system assessed as residual binding level at 10 uM by Kinomescan method relative to control
[14] = target: Serine/threonine-protein kinase TAO1 (Homo sapiens) (UniProt Q7L7X3); test: Binding affinity to wild-type human partial length TAOK1 (M1 to A320 residues) expressed in mammalian expression system assessed as residual binding level at 10 uM by Kinomescan method relative to control
[15] = target: Tyrosine-protein kinase ZAP-70 (Homo sapiens) (UniProt P43403); test: Binding affinity to wild-type human partial length ZAP70 (D20 to G299 residues) expressed in mammalian expression system assessed as residual binding level at 10 uM by Kinomescan method relative to control
[16] = target: Casein kinase I isoform alpha (Homo sapiens) (UniProt P48729); test: Binding affinity to wild-type human partial length CSNK1A1 (M1 to L450 residues) expressed in mammalian expression system assessed as residual binding level at 10 uM by Kinomescan method relative to control
[17] = target: Phosphorylase b kinase gamma catalytic chain, liver/testis isoform (Homo sapiens) (UniProt P15735); test: Binding affinity to wild-type human partial length PHKG2 (M1 to W300 residues) expressed in bacterial expression system assessed as residual binding level at 10 uM by Kinomescan method relative to control
[18] = target: Death-associated protein kinase 1 (Homo sapiens) (UniProt P53355); test: Binding affinity to wild-type human partial length DAPK1 (M1 to F296 residues) expressed in bacterial expression system assessed as residual binding level at 10 uM by Kinomescan method relative to control
[19] = tested on: Receptor-type tyrosine-protein kinase FLT3 (Homo sapiens), P36888 [R834Q]; test: Binding affinity to human partial length FLT3 R834Q mutant (V592 to Y969 residues) expressed in mammalian expression system assessed as residual binding level at 10 uM by Kinomescan method relative to control
Huh-7 = test: Cytotoxicity against human HuH7 cells assessed as growth inhibition incubated for 48 hrs by Hoechst 33342 staining based assay; format: cell-based; details: Huh-7, 48 h
[20] = target: Receptor-interacting serine/threonine-protein kinase 1 (Homo sapiens) (UniProt Q13546); test: Binding affinity to wild-type human partial length RIPK1 (M1 to K305 residues) expressed in bacterial expression system assessed as residual binding level at 10 uM by Kinomescan method relative to control
[21] = target: Serine/threonine-protein kinase 16 (Homo sapiens) (UniProt O75716); test: Binding affinity to wild-type human partial length STK16 (G11 to I305 residues) expressed in bacterial expression system assessed as residual binding level at 10 uM by Kinomescan method relative to control
[22] = target: Serine/threonine-protein kinase ICK (Homo sapiens) (UniProt Q9UPZ9); test: Binding affinity to wild-type human partial length ICK (M1 to P314 residues) expressed in mammalian expression system assessed as residual binding level at 10 uM by Kinomescan method relative to control
[23] = target: Bone morphogenetic protein receptor type-2 (Homo sapiens) (UniProt Q13873); test: Binding affinity to wild-type human partial length BMPR2 (R179 to Q526 residues) expressed in mammalian expression system assessed as residual binding level at 10 uM by Kinomescan method relative to control

Aurora kinase A (Homo sapiens), sequence (O14965 whole entry, the tested form may be a part): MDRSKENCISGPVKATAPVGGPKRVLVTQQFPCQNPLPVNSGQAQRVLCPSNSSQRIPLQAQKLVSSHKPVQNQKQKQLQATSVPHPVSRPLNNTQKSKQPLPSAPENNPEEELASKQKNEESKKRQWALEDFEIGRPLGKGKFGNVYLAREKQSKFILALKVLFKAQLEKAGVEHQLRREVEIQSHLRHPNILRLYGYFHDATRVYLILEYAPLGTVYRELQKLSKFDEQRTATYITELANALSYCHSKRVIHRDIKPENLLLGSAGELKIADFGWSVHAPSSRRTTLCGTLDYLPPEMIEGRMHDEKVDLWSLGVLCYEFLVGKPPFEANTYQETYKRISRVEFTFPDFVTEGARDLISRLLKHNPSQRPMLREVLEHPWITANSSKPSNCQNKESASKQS
Phosphorylase b kinase gamma catalytic chain, liver/testis isoform (Homo sapiens), sequence (P15735 whole entry, the tested form may be a part, canonical isoform): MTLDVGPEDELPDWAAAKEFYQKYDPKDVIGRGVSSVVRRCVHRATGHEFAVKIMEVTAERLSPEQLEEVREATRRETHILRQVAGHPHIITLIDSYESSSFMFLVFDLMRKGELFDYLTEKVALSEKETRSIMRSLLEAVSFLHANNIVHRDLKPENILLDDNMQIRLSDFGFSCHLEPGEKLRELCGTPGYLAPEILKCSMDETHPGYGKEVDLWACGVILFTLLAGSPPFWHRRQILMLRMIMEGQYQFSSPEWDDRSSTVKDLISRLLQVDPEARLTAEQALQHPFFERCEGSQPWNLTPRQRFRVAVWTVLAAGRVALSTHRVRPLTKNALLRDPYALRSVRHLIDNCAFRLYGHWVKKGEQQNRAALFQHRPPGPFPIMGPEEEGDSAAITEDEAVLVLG
Serine/threonine-protein kinase Chk2 (Homo sapiens), sequence (O96017 whole entry, the tested form may be a part): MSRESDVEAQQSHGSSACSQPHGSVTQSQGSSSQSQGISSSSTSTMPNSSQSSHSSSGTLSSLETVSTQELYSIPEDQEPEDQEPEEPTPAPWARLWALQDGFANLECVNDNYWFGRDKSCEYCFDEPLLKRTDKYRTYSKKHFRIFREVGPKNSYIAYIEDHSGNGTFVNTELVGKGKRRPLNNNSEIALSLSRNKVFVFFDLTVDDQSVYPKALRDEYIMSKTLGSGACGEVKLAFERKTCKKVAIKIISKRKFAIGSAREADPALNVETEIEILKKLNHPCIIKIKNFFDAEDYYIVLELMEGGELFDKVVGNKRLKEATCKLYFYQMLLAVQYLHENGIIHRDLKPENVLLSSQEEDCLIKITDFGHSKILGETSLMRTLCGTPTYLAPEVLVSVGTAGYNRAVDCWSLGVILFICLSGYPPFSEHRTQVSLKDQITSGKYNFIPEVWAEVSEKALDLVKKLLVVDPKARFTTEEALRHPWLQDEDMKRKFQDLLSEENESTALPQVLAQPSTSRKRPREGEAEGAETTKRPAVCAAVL
Casein kinase I isoform delta (Homo sapiens), sequence (P48730 whole entry, looked up, the tested form may be a part, canonical isoform): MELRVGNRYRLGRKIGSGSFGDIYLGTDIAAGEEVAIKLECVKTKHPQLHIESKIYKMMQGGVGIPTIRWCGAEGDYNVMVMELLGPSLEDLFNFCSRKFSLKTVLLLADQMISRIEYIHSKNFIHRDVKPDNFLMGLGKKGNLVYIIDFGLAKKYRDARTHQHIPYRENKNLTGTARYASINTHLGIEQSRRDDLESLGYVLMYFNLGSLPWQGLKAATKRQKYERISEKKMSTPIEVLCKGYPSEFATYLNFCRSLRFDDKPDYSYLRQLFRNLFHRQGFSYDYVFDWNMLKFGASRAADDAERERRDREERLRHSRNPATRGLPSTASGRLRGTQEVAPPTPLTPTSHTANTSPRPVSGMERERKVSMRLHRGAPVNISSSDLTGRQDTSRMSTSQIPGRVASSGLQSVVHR
Leukocyte tyrosine kinase receptor (Homo sapiens), sequence (P29376 whole entry, the tested form may be a part): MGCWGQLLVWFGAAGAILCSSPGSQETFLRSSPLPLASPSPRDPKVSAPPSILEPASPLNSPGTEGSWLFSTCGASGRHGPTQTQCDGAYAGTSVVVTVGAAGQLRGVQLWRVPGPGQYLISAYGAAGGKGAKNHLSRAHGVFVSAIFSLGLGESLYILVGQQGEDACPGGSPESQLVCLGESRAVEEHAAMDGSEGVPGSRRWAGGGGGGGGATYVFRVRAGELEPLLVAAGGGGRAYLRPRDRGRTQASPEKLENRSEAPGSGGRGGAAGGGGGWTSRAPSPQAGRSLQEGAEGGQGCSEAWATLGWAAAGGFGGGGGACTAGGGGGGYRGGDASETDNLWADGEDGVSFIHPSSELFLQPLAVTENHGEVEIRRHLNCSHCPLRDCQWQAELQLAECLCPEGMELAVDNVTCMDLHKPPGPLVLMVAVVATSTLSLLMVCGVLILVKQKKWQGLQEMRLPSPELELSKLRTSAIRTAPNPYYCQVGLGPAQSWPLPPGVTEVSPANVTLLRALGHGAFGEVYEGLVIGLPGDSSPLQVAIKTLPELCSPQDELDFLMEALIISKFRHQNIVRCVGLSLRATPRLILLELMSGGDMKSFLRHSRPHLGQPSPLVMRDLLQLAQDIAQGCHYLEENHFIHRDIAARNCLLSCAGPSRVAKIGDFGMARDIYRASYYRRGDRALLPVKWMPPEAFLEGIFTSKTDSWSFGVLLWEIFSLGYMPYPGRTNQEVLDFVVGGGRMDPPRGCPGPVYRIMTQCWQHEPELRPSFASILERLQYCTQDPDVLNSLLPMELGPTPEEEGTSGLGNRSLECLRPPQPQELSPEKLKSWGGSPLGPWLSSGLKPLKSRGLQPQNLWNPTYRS
TGF-beta receptor type-1 (Homo sapiens), sequence (P36897 whole entry, the tested form may be a part): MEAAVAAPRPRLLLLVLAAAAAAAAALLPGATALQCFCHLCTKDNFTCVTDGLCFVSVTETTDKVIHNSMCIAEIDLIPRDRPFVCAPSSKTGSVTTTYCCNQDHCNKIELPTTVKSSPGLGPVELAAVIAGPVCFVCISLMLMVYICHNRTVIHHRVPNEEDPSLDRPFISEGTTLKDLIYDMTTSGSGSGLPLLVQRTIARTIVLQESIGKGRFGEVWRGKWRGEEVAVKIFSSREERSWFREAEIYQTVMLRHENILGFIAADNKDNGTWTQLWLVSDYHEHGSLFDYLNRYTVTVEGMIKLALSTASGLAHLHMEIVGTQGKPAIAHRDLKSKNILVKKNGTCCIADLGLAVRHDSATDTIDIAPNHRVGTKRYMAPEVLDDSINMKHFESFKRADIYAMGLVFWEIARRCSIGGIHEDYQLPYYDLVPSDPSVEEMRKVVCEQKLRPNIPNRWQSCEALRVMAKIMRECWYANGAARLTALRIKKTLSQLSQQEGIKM
Serine/threonine-protein kinase Nek1 (Homo sapiens), sequence (Q96PY6 whole entry, the tested form may be a part): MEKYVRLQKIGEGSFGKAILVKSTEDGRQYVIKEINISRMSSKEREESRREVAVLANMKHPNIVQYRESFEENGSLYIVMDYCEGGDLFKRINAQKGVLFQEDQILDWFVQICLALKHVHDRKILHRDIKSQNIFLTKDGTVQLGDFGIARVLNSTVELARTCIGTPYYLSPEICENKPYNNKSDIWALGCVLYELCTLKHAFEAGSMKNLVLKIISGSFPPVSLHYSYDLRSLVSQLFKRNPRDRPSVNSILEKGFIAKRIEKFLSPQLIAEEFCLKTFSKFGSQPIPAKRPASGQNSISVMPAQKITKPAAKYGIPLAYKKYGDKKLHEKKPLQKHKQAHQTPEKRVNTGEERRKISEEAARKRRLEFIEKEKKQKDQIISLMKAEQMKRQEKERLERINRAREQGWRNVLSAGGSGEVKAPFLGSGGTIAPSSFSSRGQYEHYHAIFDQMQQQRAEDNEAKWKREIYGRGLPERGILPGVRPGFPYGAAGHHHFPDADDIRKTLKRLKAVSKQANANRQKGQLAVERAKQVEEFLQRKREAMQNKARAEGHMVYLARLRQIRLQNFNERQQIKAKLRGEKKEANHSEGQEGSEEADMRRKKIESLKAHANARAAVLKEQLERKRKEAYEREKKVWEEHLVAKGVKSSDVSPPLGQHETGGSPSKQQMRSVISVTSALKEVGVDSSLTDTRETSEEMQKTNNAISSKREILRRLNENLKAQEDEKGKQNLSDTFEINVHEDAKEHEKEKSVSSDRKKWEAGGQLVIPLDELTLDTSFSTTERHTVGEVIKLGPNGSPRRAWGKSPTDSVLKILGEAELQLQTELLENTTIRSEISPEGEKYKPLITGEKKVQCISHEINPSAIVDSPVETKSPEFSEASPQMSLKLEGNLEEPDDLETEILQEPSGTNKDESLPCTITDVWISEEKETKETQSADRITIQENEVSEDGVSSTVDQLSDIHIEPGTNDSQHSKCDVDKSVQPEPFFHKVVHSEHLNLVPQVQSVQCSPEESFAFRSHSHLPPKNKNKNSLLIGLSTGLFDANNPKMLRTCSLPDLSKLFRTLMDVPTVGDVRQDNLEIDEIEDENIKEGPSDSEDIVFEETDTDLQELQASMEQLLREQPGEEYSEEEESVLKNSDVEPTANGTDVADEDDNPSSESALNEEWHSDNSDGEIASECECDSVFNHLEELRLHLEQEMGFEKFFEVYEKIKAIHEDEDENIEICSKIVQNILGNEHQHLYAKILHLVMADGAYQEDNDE
Serine/threonine-protein kinase ICK (Homo sapiens), sequence (Q9UPZ9 whole entry, the tested form may be a part): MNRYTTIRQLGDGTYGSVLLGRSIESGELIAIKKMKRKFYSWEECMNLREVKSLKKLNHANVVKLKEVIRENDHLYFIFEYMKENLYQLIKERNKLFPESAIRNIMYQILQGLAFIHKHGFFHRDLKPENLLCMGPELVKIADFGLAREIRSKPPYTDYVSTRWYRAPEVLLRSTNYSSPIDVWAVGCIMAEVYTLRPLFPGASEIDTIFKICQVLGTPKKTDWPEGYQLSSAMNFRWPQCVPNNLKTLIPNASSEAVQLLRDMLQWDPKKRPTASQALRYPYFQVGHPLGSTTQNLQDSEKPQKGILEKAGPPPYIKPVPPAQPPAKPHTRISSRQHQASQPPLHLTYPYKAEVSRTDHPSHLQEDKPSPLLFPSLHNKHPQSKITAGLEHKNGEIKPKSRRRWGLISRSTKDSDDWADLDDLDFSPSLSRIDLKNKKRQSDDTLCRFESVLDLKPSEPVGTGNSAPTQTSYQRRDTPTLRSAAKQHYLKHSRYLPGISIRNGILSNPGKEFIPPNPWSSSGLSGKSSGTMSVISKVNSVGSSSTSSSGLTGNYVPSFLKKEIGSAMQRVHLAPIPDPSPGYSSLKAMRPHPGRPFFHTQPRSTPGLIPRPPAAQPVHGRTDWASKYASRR

Compound: O=C(Nc1cc(-c2cn(CCNc3c4c(nc5ccccc35)CCCC4)nn2)ccn1)Nc1cccc2c1C1CCCCN1C2=O (racemic)
- Activity [1]: 91%
- Activity [2]: 9.5%
- IC50 (Caco-2): 3000 nM
- Activity [3]: 43%
- Activity [4]: 2.8%
- Activity [5]: 38%
- Activity [6]: 74%
- Activity [7]: 90%
- Activity [8]: 0.54%
- Activity [9]: 86%
- Activity [10]: 93%
- Activity [11]: 100%
- Activity [12]: 67%
- Activity [13]: 80%
- Activity [14]: 2.6%
- Activity [15]: 60%
- Activity [16]: 5.3%
- Activity [17]: 50%
- Activity [18]: 68%
- Activity [19]: 1.3%
- IC50 (Huh-7): 3000 nM
- Activity [20]: 3.3%
- Activity [21]: 1.9%
- Activity [22]: 7.5%
- Activity [23]: 55%
